Reference: patent publication US20030236407A1, “Perfluoroalkyl group-containing micelle-forming triiodoaromatic compounds, process for their production and their use as contrast media” (Schering AG, priority 2002, published 2003)

Assay: Critical micelle formation concentration (CMC) by concentration-dependent determination of the surface tension
Type: physicochemical
Details: aqueous solution; from concentration-dependent surface tension
Protocol: The CMC was determined by the concentration-dependent determination of the surface tension. The method is described by, i.a., Elworthy and Mysels; J. Colloid Interface Sci., 21, 331, 1966; Mukerjee, Mysels; The Critical Micelle Conc. Of Aqu. Surfactant Systems, 1971, US National Bureau of Standards and G. Brosowski, M. Rohr, G. Lehmann; Fette, […], Anstrichsmittel [Fats, Soaps, Paints], 75, 335, 1973.

SMILES | Critical Micelle Formation Concentration (CMC) [mol/L]
O=C(O)CN(C(=O)COCC(=O)N1CCN(S(=O)(=O)C(F)(F)C(F)(F)C(F)(F)C(F)(F)C(F)(F)C(F)(F)C(F)(F)C(F)(F)F)CC1)c1c(I)c(C(=O)N(CC(O)CO)CC(O)CO)c(I)c(C(=O)N(CC(O)CO)CC(O)CO)c1I (stereo not drawn) [Example 1 e, [{3,5-Bis-[bis-(2,3-dihydroxy-propyl)-carbamoyl]-2,4,6-triiodo-phenyl}-(2-{2-[4-(heptadecafluorooctane-1-sulfonyl)piperazin-1-yl]-2-oxo-ethoxy}-acetyl)-amino]-acetic Acid] | 6.4e-05
O=C(COCC(=O)N1CCN(S(=O)(=O)C(F)(F)C(F)(F)C(F)(F)C(F)(F)C(F)(F)C(F)(F)C(F)(F)C(F)(F)F)CC1)Nc1c(I)c(C(=O)N(CC(O)CO)CC(O)CO)c(I)c(C(=O)N(CC(O)CO)CC(O)CO)c1I (stereo not drawn) [Example 2 c] | 6.2e-05
O=C(O)CN(C(=O)CCC(=O)N1CCN(S(=O)(=O)C(F)(F)C(F)(F)C(F)(F)C(F)(F)C(F)(F)C(F)(F)C(F)(F)C(F)(F)F)CC1)c1c(I)c(C(=O)N(CC(O)CO)CC(O)CO)c(I)c(C(=O)N(CC(O)CO)CC(O)CO)c1I (stereo not drawn) [Example 3 e, [{3,5-Bis-[bis-(2,3-dihydroxy-propyl)-carbamoyl]-2,4,6-triiodo-phenyl}-{4[4-(heptadecafluorooctane-1-sulfonyl)-piperazin-1-yl]-4-oxo-butyryl}-amino)-acetic Acid] | 5.4e-05
O=C(CCC(=O)N1CCN(S(=O)(=O)C(F)(F)C(F)(F)C(F)(F)C(F)(F)C(F)(F)C(F)(F)C(F)(F)C(F)(F)F)CC1)Nc1c(I)c(C(=O)N(CC(O)CO)CC(O)CO)c(I)c(C(=O)N(CC(O)CO)CC(O)CO)c1I (stereo not drawn) [Example 4 c, N,N,N′,N′-Tetrakis-(2,3-dihydroxy-propyl)-5-{4-[4-(heptadecafluorooctane-1-sulfonyl)-piperazin-1-yl]-4-oxo-butyrylamino}-2,4,6-triiodo-isophthalamide] | 5.4e-05
CN(CC(O)C(O)C(O)C(O)CO)C(=O)c1c(I)c(NC(=O)COCC(=O)N2CCN(S(=O)(=O)C(F)(F)C(F)(F)C(F)(F)C(F)(F)C(F)(F)C(F)(F)C(F)(F)C(F)(F)F)CC2)c(I)c(C(=O)N(C)CC(O)C(O)C(O)C(O)CO)c1I (stereo not drawn) [Example 5 f, 2,4,6-Triiodo-N,N′-dimethyl-5-{2-[2-oxo-2-(4-(heptadecafluorooctane-1-sulfonyl)-piperazin-1-yl]-ethoxy]-acetylamino}-N,N′-bis-(2,3,4,5,6-pentahydroxyhexyl)-isophthalamide] | 0.00012
CN(CC(O)C(O)C(O)C(O)CO)C(=O)c1c(I)c(C(=O)N(C)CC(O)C(O)C(O)C(O)CO)c(I)c(N(CC(=O)O)C(=O)COCC(=O)N2CCN(S(=O)(=O)C(F)(F)C(F)(F)C(F)(F)C(F)(F)C(F)(F)C(F)(F)C(F)(F)C(F)(F)F)CC2)c1I (stereo not drawn) [Example 6 e] | 6.9e-05
